Legend:
Assay in all cases: Test E flooded paddy water application
Type in all cases: in vivo
[1] = test system: barnyardgrass (Echinochloa crus-galli); details: Flood, 21 days, scale 0 to 100 (0 no effect, 100 complete control); for Plant response rating, Barnyardgrass: 16 g ai/ha
In short: (§1)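 Weeds sown in sterilized Tama silt loam (2.6% organic matter), greenhouse 29.5/26.7° C, 16-h photoperiod; at 2.0–2.5-leaf stage pots flooded to 3 cm and compound added to paddy water. Visual rating vs untreated controls after 21 days, 0 (no effect) to 100 (complete control).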

[2] = test system: bearded (brdd.) sprangletop (Leptochloa fusca ssp. fascicularis); details: Flood, 21 days, scale 0 to 100 (0 no effect, 100 complete control); for Plant response rating, Sprangletop, Brdd.: 16 g ai/ha
In short: as §1

[3] = test system: ducksalad (Heteranthera limosa); details: Flood, 21 days, scale 0 to 100 (0 no effect, 100 complete control); for Plant response rating, Ducksalad: 16 g ai/ha
In short: as §1

[4] = test system: early watergrass (Echinochloa oryzoides); details: Flood, 21 days, scale 0 to 100 (0 no effect, 100 complete control); for Plant response rating, Watergrass, Early: 16 g ai/ha
In short: as §1

[5] = test system: junglerice (Echinochloa colona); details: Flood, 21 days, scale 0 to 100 (0 no effect, 100 complete control); for Plant response rating, Junglerice: 16 g ai/ha
In short: as §1

[6] = test system: late watergrass (Echinochloa oryzicola); details: Flood, 21 days, scale 0 to 100 (0 no effect, 100 complete control); for Plant response rating, Watergrass, Late: 16 g ai/ha
In short: as §1

[7] = test system: purple redstem (Ammannia coccinea); details: Flood, 21 days, scale 0 to 100 (0 no effect, 100 complete control); for Plant response rating, Redstem: 16 g ai/ha
In short: as §1

[8] = test system: rice flatsedge (Cyperus iria); details: Flood, 21 days, scale 0 to 100 (0 no effect, 100 complete control); for Plant response rating, Flatsedge, Rice: 16 g ai/ha
In short: as §1

[9] = test system: smallflower umbrella sedge (Cyperus difformis); details: Flood, 21 days, scale 0 to 100 (0 no effect, 100 complete control); for Plant response rating, Sedge, Umbrella: 16 g ai/ha
In short: as §1

[10] = test system: transplanted rice seedlings (Oryza sativa cv. ‘Japonica-M202’); details: Flood, 21 days, scale 0 to 100 (0 no effect, 100 complete control); for Plant response rating, Rice, Transplanted: 16 g ai/ha
In short: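 Greenhouse pots of Tama silt loam with weeds and rice at 2.0–2.5-leaf stage, flooded to 3 cm; compounds applied directly into paddy water, depth maintained. Visual rating versus untreated controls after 21 days, 0 (no effect) to 100 (complete control); 29.5/26.7 °C, 16-h photoperiod.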

[11] = test system: water seeded rice seedlings (Oryza sativa cv. ‘Japonica-M202’); details: Flood, 21 days, scale 0 to 100 (0 no effect, 100 complete control); for Plant response rating, Rice, Water Seeded: 16 g ai/ha
In short: as §1

What does the source list for `COC(=O)c1nc(-c2ccc(Br)cc2)nc(N)c1Cl` [Compound 96, methyl 6-amino-2-(4-bromophenyl)-5-chloro-4-pyrimidinecarboxylate]?
Barnyardgrass plant response rating ([1]; 32 g ai/ha): 0; Barnyardgrass plant response rating ([1]; 64 g ai/ha): 0; Barnyardgrass plant response rating ([1]; 125 g ai/ha): 0; Barnyardgrass plant response rating ([1]; 250 g ai/ha): 0; Plant response rating, Barnyardgrass [1]: 0; Sprangletop, Brdd. plant response rating ([2]; 32 g ai/ha): 0; Sprangletop, Brdd. plant response rating ([2]; 64 g ai/ha): 0; Sprangletop, Brdd. plant response rating ([2]; 125 g ai/ha): 0; Sprangletop, Brdd. plant response rating ([2]; 250 g ai/ha): 0; Plant response rating, Sprangletop, Brdd. [2]: 0; Ducksalad plant response rating ([3]; 32 g ai/ha): 100; Ducksalad plant response rating ([3]; 64 g ai/ha): 100; Ducksalad plant response rating ([3]; 125 g ai/ha): 100; Ducksalad plant response rating ([3]; 250 g ai/ha): 100; Plant response rating, Ducksalad [3]: 100; Watergrass, Early plant response rating ([4]; 32 g ai/ha): 0; Watergrass, Early plant response rating ([4]; 64 g ai/ha): 0; Watergrass, Early plant response rating ([4]; 125 g ai/ha): 0; Watergrass, Early plant response rating ([4]; 250 g ai/ha): 0; Plant response rating, Watergrass, Early [4]: 0; Junglerice plant response rating ([5]; 32 g ai/ha): 0; Junglerice plant response rating ([5]; 64 g ai/ha): 0; Junglerice plant response rating ([5]; 125 g ai/ha): 0; Junglerice plant response rating ([5]; 250 g ai/ha): 0; Plant response rating, Junglerice [5]: 0; Watergrass, Late plant response rating ([6]; 32 g ai/ha): 0; Watergrass, Late plant response rating ([6]; 64 g ai/ha): 0; Watergrass, Late plant response rating ([6]; 125 g ai/ha): 0; Watergrass, Late plant response rating ([6]; 250 g ai/ha): 0; Plant response rating, Watergrass, Late [6]: 0; Redstem plant response rating ([7]; 32 g ai/ha): 85; Redstem plant response rating ([7]; 64 g ai/ha): 90; Redstem plant response rating ([7]; 125 g ai/ha): 100; Redstem plant response rating ([7]; 250 g ai/ha): 100; Plant response rating, Redstem [7]: 0; Flatsedge, Rice plant response rating ([8]; 32 g ai/ha): 100; Flatsedge, Rice plant response rating ([8]; 64 g ai/ha): 100; Flatsedge, Rice plant response rating ([8]; 125 g ai/ha): 100; Flatsedge, Rice plant response rating ([8]; 250 g ai/ha): 100; Plant response rating, Flatsedge, Rice [8]: 100; Sedge, Umbrella plant response rating ([9]; 32 g ai/ha): 100; Sedge, Umbrella plant response rating ([9]; 64 g ai/ha): 100; Sedge, Umbrella plant response rating ([9]; 125 g ai/ha): 100; Sedge, Umbrella plant response rating ([9]; 250 g ai/ha): 100; Plant response rating, Sedge, Umbrella [9]: 100; Rice, Transplanted plant response rating ([10]; 32 g ai/ha): 0; Rice, Transplanted plant response rating ([10]; 64 g ai/ha): 0; Rice, Transplanted plant response rating ([10]; 125 g ai/ha): 10; Rice, Transplanted plant response rating ([10]; 250 g ai/ha): 20; Plant response rating, Rice, Transplanted [10]: 0; Rice, Water Seeded plant response rating ([11]; 32 g ai/ha): 0; Rice, Water Seeded plant response rating ([11]; 64 g ai/ha): 0; Rice, Water Seeded plant response rating ([11]; 125 g ai/ha): 10; Rice, Water Seeded plant response rating ([11]; 250 g ai/ha): 10; Plant response rating, Rice, Water Seeded [11]: 0

What does the source list for `Nc1nc(-c2ccc(Br)cc2)nc(C(=O)O)c1Cl` [Compound 95, 6-amino-2-(4-bromophenyl)-5-chloro-4-pyrimidinecarboxylic acid]?
Barnyardgrass plant response rating ([1]; 32 g ai/ha): 0; Barnyardgrass plant response rating ([1]; 64 g ai/ha): 0; Barnyardgrass plant response rating ([1]; 125 g ai/ha): 0; Barnyardgrass plant response rating ([1]; 250 g ai/ha): 0; Plant response rating, Barnyardgrass [1]: 0; Sprangletop, Brdd. plant response rating ([2]; 32 g ai/ha): 0; Sprangletop, Brdd. plant response rating ([2]; 64 g ai/ha): 0; Sprangletop, Brdd. plant response rating ([2]; 125 g ai/ha): 0; Sprangletop, Brdd. plant response rating ([2]; 250 g ai/ha): 0; Plant response rating, Sprangletop, Brdd. [2]: 0; Ducksalad plant response rating ([3]; 32 g ai/ha): 100; Ducksalad plant response rating ([3]; 64 g ai/ha): 100; Ducksalad plant response rating ([3]; 125 g ai/ha): 100; Ducksalad plant response rating ([3]; 250 g ai/ha): 100; Plant response rating, Ducksalad [3]: 100; Watergrass, Early plant response rating ([4]; 32 g ai/ha): 0; Watergrass, Early plant response rating ([4]; 64 g ai/ha): 0; Watergrass, Early plant response rating ([4]; 125 g ai/ha): 0; Watergrass, Early plant response rating ([4]; 250 g ai/ha): 0; Plant response rating, Watergrass, Early [4]: 0; Junglerice plant response rating ([5]; 32 g ai/ha): 0; Junglerice plant response rating ([5]; 64 g ai/ha): 0; Junglerice plant response rating ([5]; 125 g ai/ha): 0; Junglerice plant response rating ([5]; 250 g ai/ha): 0; Plant response rating, Junglerice [5]: 0; Watergrass, Late plant response rating ([6]; 32 g ai/ha): 0; Watergrass, Late plant response rating ([6]; 64 g ai/ha): 0; Watergrass, Late plant response rating ([6]; 125 g ai/ha): 0; Watergrass, Late plant response rating ([6]; 250 g ai/ha): 0; Plant response rating, Watergrass, Late [6]: 0; Redstem plant response rating ([7]; 64 g ai/ha): 30; Redstem plant response rating ([7]; 125 g ai/ha): 70; Redstem plant response rating ([7]; 250 g ai/ha): 80; Plant response rating, Redstem [7]: 30; Flatsedge, Rice plant response rating ([8]; 32 g ai/ha): 0; Flatsedge, Rice plant response rating ([8]; 64 g ai/ha): 0; Flatsedge, Rice plant response rating ([8]; 125 g ai/ha): 0; Flatsedge, Rice plant response rating ([8]; 250 g ai/ha): 0; Plant response rating, Flatsedge, Rice [8]: 0; Sedge, Umbrella plant response rating ([9]; 32 g ai/ha): 95; Sedge, Umbrella plant response rating ([9]; 64 g ai/ha): 95; Sedge, Umbrella plant response rating ([9]; 125 g ai/ha): 95; Sedge, Umbrella plant response rating ([9]; 250 g ai/ha): 95; Plant response rating, Sedge, Umbrella [9]: 0; Rice, Transplanted plant response rating ([10]; 32 g ai/ha): 0; Rice, Transplanted plant response rating ([10]; 64 g ai/ha): 0; Rice, Transplanted plant response rating ([10]; 125 g ai/ha): 0; Rice, Transplanted plant response rating ([10]; 250 g ai/ha): 15; Plant response rating, Rice, Transplanted [10]: 0; Rice, Water Seeded plant response rating ([11]; 32 g ai/ha): 0; Rice, Water Seeded plant response rating ([11]; 64 g ai/ha): 0; Rice, Water Seeded plant response rating ([11]; 125 g ai/ha): 0; Rice, Water Seeded plant response rating ([11]; 250 g ai/ha): 15; Plant response rating, Rice, Water Seeded [11]: 0

From patent publication US8802597B2, “Herbicidal pyrimidines” (E I du Pont de Nemours and Company, priority 2003, dated 2014)
